{"source": "paper PMC3654088", "about": "(Cell metabolism, 2013)", "molecular_target": "T1, Tam41 (Saccharomyces cerevisiae, UniProt P53230)", "T1 sequence (P53230 27-385)": "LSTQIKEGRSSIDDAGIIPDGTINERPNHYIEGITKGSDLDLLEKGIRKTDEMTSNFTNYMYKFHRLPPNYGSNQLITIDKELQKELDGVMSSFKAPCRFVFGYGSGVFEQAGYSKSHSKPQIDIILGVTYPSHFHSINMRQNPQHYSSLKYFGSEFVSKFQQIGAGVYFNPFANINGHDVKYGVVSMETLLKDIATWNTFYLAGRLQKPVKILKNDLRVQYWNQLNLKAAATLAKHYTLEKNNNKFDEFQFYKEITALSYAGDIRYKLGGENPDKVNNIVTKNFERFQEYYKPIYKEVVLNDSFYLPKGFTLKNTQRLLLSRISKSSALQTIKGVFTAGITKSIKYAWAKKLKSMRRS", "experiment": "CDP-DAG formation, TLC with fluorescence imaging", "assay_type": "biochemical", "conditions": "2 mM CTP; 2 mM MgCl2; Tris-HCl pH 7.5; 0.2% Triton X-100; 30 °C; 10 min; labelled compound"}
{"substance": "NBD-PA", "values": [{"measurement": "Km", "value": "67 ± 10", "unit": "µM"}]}
